Where two headings read alike, the source gives them in different places.
What was measured:
human CB2 receptors = target: T1, human CB2 receptors (Homo sapiens, UniProt P34972); assay: cAMP assay, human CB2; type: cell-based
T1 construct: expressed in transfected cells; host or cells: CHO cells
Experimental: (§1) CHO cells expressing human CB1 or CB2 receptors are seeded 17-24 hours prior to the experiment 50.000 cells per well in a black 96 well plate with flat clear bottom (Corning Costar #3904) in DMEM (Invitrogen No. 31331), lx HT supplement, with 10% fetal calf serum and incubated at 5% CO2 and 37° C. in a humidified incubator. The growth medium was exchanged with Krebs Ringer Bicarbonate buffer with 1 mM IBMX and incubated at 30° C. for 30 min. Compounds were added to a final assay volume of 100 μl and incubated for 30 min at 30° C. Using the cAMP-Nano-TRF detection kit the assay (Roche Diagnostics) was stopped by the addition of 50 μl lysis reagent (Tris, NaCl, 1.5% Triton X100, 2.5% NP40, 10% NaN3) and 50 μl detection solutions (20 μM mAb Alexa700-cAMP 1:1, and 48 μM Ruthenium-2-AHA-cAMP) and shaken for 2 h at room temperature. The time-resolved energy transfer is measured by a TRF reader (Evotec Technologies GmbH), equipped with a ND:YAG laser as excitation source. The plate is measured twice with the excitation at 355 nm and at the emission with a delay of 100 ns and a gate of 100 ns, total exposure time 10 s at 730 (bandwidth 30 nm) or 645 nm (bandwidth 75 nm), respectively. The FRET signal is calculated as follows: FRET=T730-Alexa730-P(T645-B645) with P=Ru730-B730/Ru645-B645, where T730 is the test well measured at 730 nM, T645 is the test well measured at 645 nm, B730 and B645 are the buffer controls at 730 nm and 645 nm, respectively. cAMP content is determined from the function of a standard curve spanning from 10 μM to 0.13 nM cAMP.
(§2) EC50 values were determined using Activity Base analysis (ID Business Solution, Limited). The EC50 values for a wide range of cannabinoid agonists generated from this assay were in agreement with the values published in the scientific literature.

human CB1 receptors = target: T2, human CB1 receptors (Homo sapiens, UniProt P21554); assay: cAMP assay, human CB1; type: cell-based
T2 construct: expressed in transfected cells; host or cells: CHO cells
T2 sequence (P21554 whole entry): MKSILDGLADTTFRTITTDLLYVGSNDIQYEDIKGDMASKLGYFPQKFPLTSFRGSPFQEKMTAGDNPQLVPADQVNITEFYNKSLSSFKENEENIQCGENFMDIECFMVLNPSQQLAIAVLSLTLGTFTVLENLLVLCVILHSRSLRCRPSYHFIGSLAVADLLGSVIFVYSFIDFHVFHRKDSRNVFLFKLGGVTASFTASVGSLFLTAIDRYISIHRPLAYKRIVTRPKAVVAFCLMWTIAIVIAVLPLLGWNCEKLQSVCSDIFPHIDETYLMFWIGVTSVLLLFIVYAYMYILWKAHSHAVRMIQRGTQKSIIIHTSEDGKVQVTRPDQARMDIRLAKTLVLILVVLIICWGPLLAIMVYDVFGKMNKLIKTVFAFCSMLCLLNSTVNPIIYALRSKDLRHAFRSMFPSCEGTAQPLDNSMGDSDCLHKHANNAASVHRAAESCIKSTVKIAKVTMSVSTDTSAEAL
Experimental: as §1, §2

[1] = functional cAMP assay, CHO cells expressing human CB2, read-out: Ec50: CB2 - hu cAMP
[2] = functional cAMP assay, CHO cells expressing human CB1, read-out: Ec50: CB1 - hu cAMP

T1 sequence (P34972 whole entry): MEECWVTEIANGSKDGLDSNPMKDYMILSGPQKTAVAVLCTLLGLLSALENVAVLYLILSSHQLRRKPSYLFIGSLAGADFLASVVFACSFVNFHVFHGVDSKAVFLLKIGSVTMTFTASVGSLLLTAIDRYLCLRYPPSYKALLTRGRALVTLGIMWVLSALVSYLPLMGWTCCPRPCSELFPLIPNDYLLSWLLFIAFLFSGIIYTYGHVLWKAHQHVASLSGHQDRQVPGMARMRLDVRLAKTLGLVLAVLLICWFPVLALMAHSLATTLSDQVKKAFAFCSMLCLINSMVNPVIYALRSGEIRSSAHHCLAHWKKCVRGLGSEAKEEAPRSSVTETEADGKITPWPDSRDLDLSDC

EC50 (human CB2 receptors; [1])	EC50 (human CB1 receptors; [2])	Structure (SMILES)	EC50 (human CB2 receptors)	EC50 (human CB1 receptors)
122 nM	> 10000 nM	COC(=O)C1CN(C(=O)n2nnn(-c3cccc(F)c3)c2=O)C1 [Example 24, 1-[4-(3-Fluoro-phenyl)-5-oxo-4,5-dihydro-tetrazole-1-carbonyl]-azetidine-3-carboxylic acid methyl ester]		
1.2 nM	> 10000 nM	CN(CCCc1ccccc1)C(=O)n1nnn(-c2cccc(F)c2)c1=O [Example 8, 4-(3-Fluoro-phenyl)-5-oxo-4,5-dihydro-tetrazole-1-carboxylic acid methyl-(3-phenyl-propyl)-amide]		
8.4 nM	> 10000 nM	Cc1cccc(-n2nnn(C(=O)N3CCOCC3)c2=O)c1 [Example 127, 1-(3-methylphenyl)-4-(morpholine-4-carbonyl)tetrazol-5-one]		
21.1 nM	> 10000 nM	CN(C)C(=O)CN1CCN(C(=O)n2nnn(-c3ccc(Cl)cc3)c2=O)CC1 [Example 94, 2-{4-[4-(4-Chloro-phenyl)-5-oxo-4,5-dihydro-tetrazole-1-carbonyl]-piperazin-1-yl}-N,N-dimethyl-acetamide]		
106 nM	> 10000 nM	CC(C(=O)N1CCCC1)N1CCN(C(=O)n2nnn(-c3cccc(OC(F)(F)F)c3)c2=O)CC1 (stereo not drawn) [Example 117, 1-[4-(1-Methyl-2-oxo-2-pyrrolidin-1-yl-ethyl)-piperazine-1-carbonyl]-4-(3-trifluoromethoxy-phenyl)-1,4-dihydro-tetrazol-5-one]		
8 nM	> 10000 nM	Cn1ccc2ccc(-n3nnn(C(=O)N4CCOCC4)c3=O)cc21 [Example 134, 1-(1-methylindol-6-yl)-4-(morpholine-4-carbonyl)tetrazol-5-one]		
13.8 nM	> 10000 nM	CCN(C(C)=O)C1CCN(C(=O)n2nnn(-c3cccc(F)c3)c2=O)C1 (stereo not drawn) [Example 44, N-Ethyl-N-{1-[4-(3-fluoro-phenyl)-5-oxo-4,5-dihydro-tetrazole-1-carbonyl]-pyrrolidin-3-yl}-acetamide]		
1.5 nM	> 10000 nM	CC1(C)CCN(C(=O)n2nnn(-c3cccc(OC(F)(F)F)c3)c2=O)CC1 [Example 78, 1-(4,4-Dimethyl-piperidine-1-carbonyl)-4-(3-trifluoromethoxy-phenyl)-1,4-dihydro-tetrazol-5-one]		
4.2 nM	> 10000 nM	CCCCNC(=O)CN1CCN(C(=O)n2nnn(-c3ccc(Cl)cc3)c2=O)CC1 [Example 109, N-Butyl-2-{4-[4-(4-chloro-phenyl)-5-oxo-4,5-dihydro-tetrazole-1-carbonyl]-piperazin-1-yl}-acetamide]		
		COCCCN(C)C(=O)n1nnn(-c2cccc(OC(F)(F)F)c2)c1=O [Example 87, 5-Oxo-4-(3-trifluoromethoxy-phenyl)-4,5-dihydro-tetrazole-1-carboxylic acid (3-methoxy-propyl)-methyl-amide]	3.6 nM	> 10000 nM
1 nM	> 10000 nM	COCCCN(C)C(=O)n1nnn(-c2cccc(Cl)c2)c1=O [Example 86, 4-(3-Chloro-phenyl)-5-oxo-4,5-dihydro-tetrazole-1-carboxylic acid (3-methoxy-propyl)-methyl-amide]		
25 nM	> 10000 nM	CN(C(=O)n1nnn(-c2cccc(F)c2)c1=O)c1cccnc1 [Example 33, 4-(3-Fluoro-phenyl)-5-oxo-4,5-dihydro-tetrazole-1-carboxylic acid methyl-pyridin-3-yl-amide]		
		CCN(CCOC)C(=O)n1nnn(-c2cccc(F)c2)c1=O [Example 7, 4-(3-Fluoro-phenyl)-5-oxo-4,5-dihydro-tetrazole-1-carboxylic acid ethyl-(2-methoxy-ethyl)-amide]	2.7 nM	> 10000 nM
12.9 nM	> 10000 nM	O=C(CN1CCN(C(=O)n2nnn(-c3ccc(Cl)cc3)c2=O)CC1)N1CCCC1 [Example 97, 1-(4-Chloro-phenyl)-4-[4-(2-oxo-2-pyrrolidin-1-yl-ethyl)-piperazine-1-carbonyl]-1,4-dihydro-tetrazol-5-one]		
161 nM	> 10000 nM	CN(C(=O)n1nnn(C2CC2)c1=O)c1cccnc1 [Example 35, 4-Cyclopropyl-5-oxo-4,5-dihydro-tetrazole-1-carboxylic acid methyl-pyridin-3-yl-amide]		
0.6 nM	> 10000 nM	CC1(C)CCN(C(=O)n2nnn(-c3cccc(Cl)c3)c2=O)CC1 [Example 77, 1-(3-Chloro-phenyl)-4-(4,4-dimethyl-piperidine-1-carbonyl)-1,4-dihydro-tetrazol-5-one]		
1.8 nM	> 10000 nM	CC1(C)CCCN(C(=O)n2nnn(-c3cccc(F)c3)c2=O)C1 [Example 63, 1-(3,3-Dimethyl-piperidine-1-carbonyl)-4-(3-fluoro-phenyl)-1,4-dihydro-tetrazol-5-one]		
18.2 nM	> 10000 nM	O=C(CN1CCN(C(=O)n2nnn(-c3cccc(OC(F)(F)F)c3)c2=O)CC1)N1CCCC1 [Example 96, 1-[4-(2-Oxo-2-pyrrolidin-1-yl-ethyl)-piperazine-1-carbonyl]-4-(3-trifluoromethoxy-phenyl)-1,4-dihydro-tetrazol-5-one]		
25.8 nM	> 10000 nM	CC(=O)N[C@@H]1CCN(C(=O)n2nnn(-c3cccc(F)c3)c2=O)C1 [Example 43, N—{(R)-1-[4-(3-Fluoro-phenyl)-5-oxo-4,5-dihydro-tetrazole-1-carbonyl]-pyrrolidin-3-yl}-acetamide]		
24.2 nM	> 10000 nM	CN(C)C(=O)CN1CCN(C(=O)n2nnn(-c3cccc(OC(F)(F)F)c3)c2=O)CC1 [Example 93, N,N-Dimethyl-2-{4-[5-oxo-4-(3-trifluoromethoxy-phenyl)-4,5-dihydro-tetrazole-1-carbonyl]-piperazin-1-yl}-acetamide]		
6.7 nM	> 10000 nM	COc1ccc(-n2nnn(C(=O)N3CCOCC3)c2=O)cc1 [Example 130, 1-(4-methoxyphenyl)-4-(morpholine-4-carbonyl)tetrazol-5-one]		
5 nM	> 10000 nM	CC1(C)CCN(C(=O)n2nnn(-c3cccc(Cl)c3)c2=O)C1 [Example 138, 1-(3-chlorophenyl)-4-(3,3-dimethylpyrrolidine-1-carbonyl)tetrazol-5-one]		
		CCOCCN(CC)C(=O)n1nnn(-c2ccc(Cl)cc2)c1=O [Example 100, 4-(4-Chloro-phenyl)-5-oxo-4,5-dihydro-tetrazole-1-carboxylic acid (2-ethoxy-ethyl)-ethyl-amide]	1.7 nM	> 10000 nM
2.9 nM	> 10000 nM	CCCCNC(=O)CN1CCN(C(=O)n2nnn(-c3cccc(Cl)c3)c2=O)CC1 [Example 107, N-Butyl-2-{4-[4-(3-chloro-phenyl)-5-oxo-4,5-dihydro-tetrazole-1-carbonyl]-piperazin-1-yl}-acetamide]		
19 nM	> 10000 nM	O=C(N1CCOCC1)n1nnn(-c2cc(F)ccc2F)c1=O [Example 124, 1-(2,5-difluorophenyl)-4-(morpholine-4-carbonyl)tetrazol-5-one]		
0.8 nM	> 10000 nM	CCN(Cc1ccncc1)C(=O)n1nnn(-c2cccc(F)c2)c1=O [Example 6, 4-(3-Fluoro-phenyl)-5-oxo-4,5-dihydro-tetrazole-1-carboxylic acid ethyl-pyridin-4-ylmethyl-amide]		
11.5 nM	> 10000 nM	CN(CCC#N)C(=O)n1nnn(-c2cccc(F)c2)c1=O [Example 2, 4-(3-Fluoro-phenyl)-5-oxo-4,5-dihydro-tetrazole-1-carboxylic acid (2-cyano-ethyl)-methyl-amide]		
16 nM	> 10000 nM	O=C(N1CCOCC1)n1nnn(-c2cccc(Cl)c2Cl)c1=O [Example 131, 1-(2,3-dichlorophenyl)-4-(morpholine-4-carbonyl)tetrazol-5-one]		
8.5 nM	> 10000 nM	COCCN(CCOC)C(=O)n1nnn(-c2cccc(F)c2)c1=O [Example 57, 4-(3-Fluoro-phenyl)-5-oxo-4,5-dihydro-tetrazole-1-carboxylic acid bis-(2-methoxy-ethyl)-amide]		

Structure (SMILES)	EC50 (human CB2 receptors; [1])	EC50 (human CB1 receptors; [2])	EC50 (human CB2 receptors)	EC50 (human CB1 receptors)
COC(=O)C1(NC(=O)OC(C)(C)C)CCN(C(=O)n2nnn(-c3cccc(F)c3)c2=O)CC1 [Example 62, 4-tert-Butoxycarbonylamino-1-[4-(3-fluoro-phenyl)-5-oxo-4,5-dihydro-tetrazole-1-carbonyl]-piperidine-4-carboxylic acid methyl ester]	61.4 nM	> 10000 nM		

— patent US20160083357A1, “NOVEL TETRAZOLONE DERIVATIVES” (Hoffmann-La Roche Inc., priority 2013, published 2016)
